Assay results taken from the NIST ThermoML archive (doi:10.1016/j.jct.2015.08.014).

Experiment: xn = mol fraction of the nth substance listed
Conditions: 283.15 K, 100 kPa, Liquid, Alternating current cell with electrodes

CCCC[N+]1(C)CCCC1.N#CN=C=[N-] [1-butyl-1-methylpyrrolidinium dicyanamide] + O=C1CCCO1
electrical conductivity [S/m]
Conditions | Frequency=0.003 MHz | Frequency=0.00347222 MHz | Frequency=0.004 MHz | Frequency=0.00446429 MHz | Frequency=0.005 MHz | Frequency=0.005454 MHz | Frequency=0.006 MHz | Frequency=0.00652174 MHz | Frequency=0.00694444 MHz | Frequency=0.0075 MHz
x1 = 0.0463 | – | 1.17 | 1.17 | 1.17 | 1.17 | 1.17 | 1.17 | 1.17 | 1.17 | 1.17
x1 = 0.0987 | – | 1.73 | 1.73 | 1.73 | 1.73 | 1.73 | 1.73 | 1.73 | 1.73 | 1.73
x1 = 0.1449 | – | 1.93 | 1.93 | 1.93 | 1.93 | 1.93 | 1.93 | 1.93 | 1.93 | 1.93
x1 = 0.1859 | 2.028 | 2.028 | 2.028 | 2.028 | 2.028 | 2.028 | 2.028 | 2.028 | 2.028 | 2.028
x1 = 0.2493 | 1.925 | 1.925 | 1.926 | 1.926 | 1.926 | 1.926 | 1.926 | 1.926 | 1.926 | 1.926
x1 = 0.3029 | 1.84 | 1.84 | 1.84 | 1.84 | 1.84 | 1.84 | 1.84 | 1.84 | 1.84 | 1.84
x1 = 0.3845 | 1.66 | 1.66 | 1.66 | 1.66 | 1.66 | 1.66 | 1.66 | 1.66 | 1.66 | 1.66
x1 = 0.4985 | 1.407 | 1.407 | 1.407 | 1.407 | 1.407 | 1.407 | 1.407 | 1.407 | 1.407 | 1.407
x1 = 0.6954 | 1.07 | 1.07 | 1.07 | 1.07 | 1.07 | 1.07 | 1.07 | 1.07 | 1.07 | 1.07
x1 = 0.9013 | 0.849 | 0.849 | 0.849 | 0.849 | 0.849 | 0.849 | 0.849 | 0.849 | 0.849 | 0.849
x1 = 1 | 0.786 | 0.786 | 0.786 | 0.786 | 0.786 | 0.786 | 0.786 | 0.786 | 0.786 | 0.786
